Literature values in US9426985B2, “Compositions and methods to modulate the rate of EBIS production from dithiocarbamate fungicides” (Dow Agrosciences LLC, priority 2012, dated 2016).

Legend:
[1] = tomato leaves

| Compound | half-life on the leaf surface | time to peak EBIS levels after application [1] |
| --- | --- | --- |
| S=C1SSC2=NCCN12 [EBIS, ethylene bisisthiocyanate sulfide] | less than 2 days | – |
| mancozeb | – | about two |
